In the supplement of paper PMC4862054:

How the values were obtained:
Conditions in all cases: incubation time: 72 h
[1] = test system: SK-BR-3; experiment: normalised response (% of control), CellTiter-Glo; higher = more viable cells (100 = DMSO, 0 = benzethonium chloride kill control)
Procedure: (§1)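 DSRT, 72 h incubation, CellTox Green / CellTiter-Glo readout. Signal is normalised to DMSO and benzethonium chloride controls. Value is the normalised response at dose 3.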

[2] = test system: MCF-10A; experiment: as above
Procedure: as §1

[3] = test system: HCC1143; experiment: as above
Procedure: as §1

[4] = test system: DU-4475; experiment: as above
Procedure: as §1

[5] = test system: HCC1937; experiment: as above
Procedure: as §1

[6] = test system: BT-549; experiment: as above
Procedure: as §1

[7] = test system: MDA-MB-231; experiment: as above
Procedure: as §1

[8] = test system: MDA-MB-468; experiment: as above
Procedure: as §1

[9] = test system: HDQ-P1; experiment: as above
Procedure: as §1

[10] = test system: MDA-MB-436; experiment: as above
Procedure: as §1

[11] = test system: MDA-MB-453; experiment: as above
Procedure: as §1

[12] = test system: CAL-51; experiment: as above
Procedure: as §1

[13] = test system: CAL-148; experiment: as above
Procedure: as §1

[14] = test system: CAL-85-1; experiment: as above
Procedure: as §1

[15] = test system: HCC1599; experiment: as above
Procedure: as §1

[16] = test system: MFM-223; experiment: as above
Procedure: as §1

[17] = test system: Hs578T; experiment: as above
Procedure: as §1

[18] = test system: CAL-120; experiment: as above
Procedure: as §1

[19] = test system: BT-474; experiment: as above
Procedure: as §1

[20] = test system: MCF-10A; experiment: normalised response (% of control), CellTox Green; higher = less cell death (100 = DMSO, 0 = benzethonium chloride kill control)
Method in brief: (§2)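 Values are normalised signals, each belonging to one concentration of the series. Breast cancer cells (20 µl suspension) were seeded into 384-well plates with compound at 5 concentrations in 10-fold steps over a compound-specific 10,000-fold range and incubated 72 h. Readouts were CellTox Green fluorescence (485/520 nm), then CellTiter-Glo luminescence after 10 min at room temperature, with each plate set to 0.1 % DMSO as 100 and a positive kill control as 0.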

[21] = test system: HCC1143; experiment: as above
Method in brief: as §2

[22] = test system: DU-4475; experiment: as above
Method in brief: as §2

[23] = test system: HCC1937; experiment: as above
Method in brief: as §2

[24] = test system: BT-549; experiment: as above
Method in brief: as §2

[25] = test system: MDA-MB-468; experiment: as above
Method in brief: as §2

[26] = test system: HDQ-P1; experiment: as above
Method in brief: as §2

[27] = test system: MDA-MB-436; experiment: as above
Method in brief: as §2

[28] = test system: MDA-MB-453; experiment: as above
Method in brief: as §2

[29] = test system: CAL-51; experiment: as above
Method in brief: as §2

[30] = test system: CAL-148; experiment: as above
Method in brief: as §2

[31] = test system: CAL-85-1; experiment: as above
Method in brief: as §2

[32] = test system: HCC1599; experiment: as above
Method in brief: as §2

[33] = test system: MFM-223; experiment: as above
Method in brief: as §2

[34] = test system: CAL-120; experiment: as above
Method in brief: as §2

[35] = test system: BT-474; experiment: as above
Method in brief: as §2

[36] = test system: MDA-MB-231; experiment: as above
Method in brief: as §2

[37] = test system: Hs578T; experiment: as above
Method in brief: as §2

Row | Compound | normalised response [1] [%] | normalised response [2] [%] | normalised response [3] [%] | normalised response [4] [%] | normalised response [5] [%] | normalised response [6] [%] | normalised response [7] [%] | normalised response [8] [%] | normalised response [9] [%] | normalised response [10] [%] | normalised response [11] [%] | normalised response [12] [%] | normalised response [13] [%] | normalised response [14] [%] | normalised response [15] [%] | normalised response [16] [%] | normalised response [17] [%] | normalised response [18] [%] | normalised response [19] [%] | normalised response [20] [%] | normalised response [21] [%] | normalised response [22] [%] | normalised response [23] [%] | normalised response [24] [%] | normalised response [25] [%] | normalised response [26] [%] | normalised response [27] [%] | normalised response [28] [%] | normalised response [29] [%] | normalised response [30] [%] | normalised response [31] [%] | normalised response [32] [%] | normalised response [33] [%] | normalised response [34] [%] | normalised response [35] [%] | normalised response [36] [%] | normalised response [37] [%]
1 | C[C@]12CC[C@@H]3c4ccc(OC(=O)N(CCCl)CCCl)cc4CC[C@H]3[C@@H]1CC[C@@H]2O [Estramustine] (100 nM) | 85.3 | 88.2 | 100 | 93.3 | 95.2 | 104 | 95.4 | 95.2 | 102 | 98.4 | 83.1 | 86.7 | 76.8 | 94.6 | 103 | 91.4 | 93 | 101 | 98.1 | 83.8 | 84.8 | 96.8 | 70.5 | 103 | 97.9 | 89.7 | 83.2 | 103 | 81 | 102 | 95.6 | 91.3 | 99.3 | 100 | 95.8 | – | –
2 | Cc1sc2c(c1C)C(c1ccc(Cl)cc1)=N[C@@H](CC(=O)OC(C)(C)C)c1nnc(C)n1-2 [(+)JQ1] (100 nM) | 92.8 | 84.6 | 99.5 | 93.5 | 85 | 76 | 94.8 | 89.3 | 89.5 | 102 | 94.6 | 106 | 117 | 88.8 | 97.3 | 95 | 73.4 | 97.9 | 86.2 | 111 | 111 | 101 | – | 95.7 | 131 | 96.3 | 68.7 | 108 | 101 | 98.3 | 83.9 | 105 | 103 | 82.9 | 79 | 96.2 | 104
3 | COc1cc(F)c(F)c(Nc2ccc(I)cc2F)c1NS(=O)(=O)C1(C[C@H](O)CO)CC1 [Refametinib] (100 nM) | 90.6 | 37.9 | 89.1 | 35.1 | 88 | 105 | 83.6 | 82.2 | 68.6 | 91.6 | 97.6 | 88.3 | 87.2 | 89.7 | 99.6 | 88.9 | 87.4 | 87.7 | 81 | 93.4 | 95.8 | 84 | 92.5 | 102 | – | 81.3 | – | 101 | 79.7 | 58.6 | 86.7 | 93.7 | 97.7 | 92.4 | 97.4 | – | 103
4 | Oc1ncnc2[nH]ncc12 [Allopurinol] (100 nM) | 105 | 104 | 106 | 106 | 101 | 91.4 | 105 | 107 | 101 | 99.5 | 110 | 86.8 | 104 | 104 | 111 | 109 | 105 | 103 | 101 | 89.3 | 113 | 101 | – | 94.6 | 92.2 | 103 | 102 | 102 | 98.8 | 86.5 | 109 | 104 | 91.8 | 103 | 98.1 | 112 | 103
5 | CC1(C)CNc2cc(NC(=O)c3cccnc3NCc3ccncc3)ccc21 [Motesanib] (100 nM) | 92.1 | 92.5 | 95.4 | 102 | 96.8 | 99.7 | 101 | 91.8 | 99.5 | 96.9 | 99.8 | 107 | 86.2 | 89.5 | 114 | 93.8 | 96.3 | 99.9 | 101 | 100 | 100 | 97.9 | 99.2 | 106 | 93 | 111 | 91.1 | 105 | 107 | 94.2 | 110 | 103 | 92.8 | 95.2 | 99 | 101 | –
6 | CC1=C2C[C@H]3[C@@H](CC=C4C[C@@H](O)CC[C@@]43C)[C@@H]2CC[C@]12O[C@@H]1C[C@H](C)CN[C@H]1[C@H]2C [Cyclopamine] (100 nM) | 112 | 106 | 104 | 109 | 97.2 | 95 | 109 | 108 | 99.9 | 99.7 | 122 | 99.3 | 114 | 106 | 100 | 109 | 105 | 104 | 101 | 94.2 | 115 | 102 | – | 102 | 88.8 | 68.2 | 86 | 97.4 | 85.7 | 104 | 94.5 | 104 | 107 | 99.6 | 101 | 102 | 95.4
7 | CC[C@@H]1C(=O)OC[C@@H]1Cc1cncn1C [Pilocarpine] (400 nM) | 89.7 | 101 | 98.7 | 97.7 | 96.7 | 102 | 94.1 | 95.3 | 98.3 | 88.3 | 96.1 | 63.4 | 86 | 97 | 85.9 | 101 | 97.8 | 96.6 | 94.5 | 98.6 | 104 | 95.8 | 70.4 | 93.4 | 73.4 | 91 | 70 | 93.6 | 91.1 | 97.1 | 110 | 99.5 | 99.6 | 98.8 | 98.4 | 106 | –
8 | CC(=O)N(O)CCCCCNC(=O)CCC(=O)N(O)CCCCCNC(=O)CCC(=O)N(O)CCCCCN [Deferoxamine] (100 nM) | 88.2 | 96.8 | 99.1 | 93.9 | 89.7 | 100 | 93.2 | 95.8 | 101 | 102 | 84.4 | 96.2 | 88.7 | 95 | 102 | 93.5 | 101 | 99.2 | 95 | 90.1 | 102 | 98.1 | – | 97.8 | 114 | 96.1 | 95.5 | 102 | 104 | 92.4 | 104 | 92.5 | 102 | 103 | 94.5 | 78.7 | 94.9
9 | C[C@]1(O)C[C@@H](c2nc(-c3ccc4ccc(-c5ccccc5)nc4c3)c3c(N)nccn32)C1 [Linsitinib] (100 nM) | 84.8 | 72.8 | 98.1 | 97.8 | 107 | 100 | 93.9 | 85.6 | 99.8 | 88.9 | 90.7 | 105 | 90 | 89.7 | 107 | 91.4 | 106 | 90.4 | 91.3 | 92.7 | 73 | 96.2 | – | 102 | – | 93.2 | 52.9 | 99.3 | 95.5 | 76.6 | 90.8 | 93.8 | 99.8 | 97.2 | 99.3 | 83.4 | –
